# Measured values reported in ChEMBL document CHEMBL5230099, “Free radical scavengers: An overview on heterocyclic advances and medicinal prospects” (Eur J Med Chem, 2020).
# Test: Antioxidant activity assessed as BHT equivalent of DPPH radical scavenging activity
# Format: functional
# Conditions: not given
row,Compound,Activity [mg]
1,O=C(CCc1ccc(O)cc1)c1c(O)cc(O)cc1O,1.27
2,O=C(CCc1ccc(O)cc1)c1c(O)cc(O[C@@H]2O[C@H](CO)[C@@H](O)[C@H](O)[C@H]2O)cc1O,0.89

# Test: Antioxidant activity assessed as trolox equivalent of ABTS-radical scavenging activity
# Format: functional
# Conditions: not given
row,Compound,Activity [µmol/g]
1,COc1ccc2c(=O)cc(-c3ccc(N4CCN(c5nc6ccccc6s5)CC4)cc3)oc2c1,317
2,Cc1cc(N2CCN(c3cccc(C4CC(=O)c5ccccc5O4)c3)CC2)nc(-c2ccccc2O)n1 (configuration not stated),369
3,O=C1CC(c2cccc(N3CCN(c4nc5ccccc5s4)CC3)c2)Oc2ccccc21 (configuration not stated),464

# Test: Antioxidant activity assessed as ABTS-radical scavenging activity measured upto 6 mins
# Format: functional
# Conditions: not given
row,Compound,Activity [µg/mL]
1,O=C(/C=C/c1ccc(/C=C/C(=O)c2ccc(Oc3ccccc3)cc2)cc1)c1ccc(Oc2ccccc2)cc1,174
2,O=C(/C=C/c1ccc(/C=C/C(=O)c2ccc3c(c2)OCO3)cc1)c1ccc2c(c1)OCO2,220

# Test: Antioxidant activity assessed as DPPH radical scavenging activity incubated for 30 mins under dark condition
# Format: functional
# Conditions: not given
row,IC50 [mg/L],Compound
1,4.89,CCn1c(-n2cc(/C=N/N=c3/scc(-c4ccc(Br)cc4)n3-c3ccccc3)c(-c3ccc(OC)cc3)n2)nc2c1c(=O)n(C)c(=O)n2C
2,10.24,CCn1c(-n2cc(/C=N/NC(N)=S)c(-c3ccc(Cl)cc3)n2)nc2c1c(=O)n(C)c(=O)n2C
3,5.71,CCn1c(-n2cc(/C=N/N=c3\[nH]c(-c4ccc(Br)cc4)cs3)c(-c3ccc(Cl)cc3)n2)nc2c1c(=O)n(C)c(=O)n2C

# Test: Antioxidant activity assessed as DPPH radical scavenging activity at 1 mg/ml incubated for 30 mins relative to control
# Format: functional
# Conditions: not given
row,Compound,Activity [%]
1,COc1cc2c(Nc3ccc(O)cc3)c([N+](=O)[O-])cnc2cc1OCCCN1CCC(C)CC1,84

# Test: Antioxidant activity assessed as DPPH radical scavenging activity by measuring inhibition rate relative to control
# Format: functional
# Design: concentration or dose not given beside the values
# Conditions: dose or concentration not given here
row,Compound,inhibition [%]
1,CSc1nc2nc(N/N=C(\C)c3ccc([N+](=O)[O-])cc3)c3ccccc3n2n1,78
2,CSc1nc2nc(NNC(=S)NC3CCCCC3)c3ccccc3n2n1,91.2
3,C=CCNC(=S)NNc1nc2nc(SC)nn2c2ccccc12,91
4,CSc1nc2nc(N/N=C/c3cccnc3)c3ccccc3n2n1,65
5,CSc1nc2nc(NN)c3ccccc3n2n1,85.9

# Test: Antioxidant activity assessed as DPPH radical scavenging activity at 0.25 mg/ml incubated for 30 mins relative to control
# Format: functional
# Conditions: not given
row,Compound,Activity [%]
1,COc1cc2c(Nc3ccc(O)cc3)c([N+](=O)[O-])cnc2cc1OCCCN1CCC(C)CC1,36

# Test: Antioxidant activity assessed as DPPH radical scavenging activity
# Format: functional
# Conditions: not given
IC50 [mg/L],EC50 [mg/L],Compound
81.12,,C[C@H]1O[C@H](O[C@H]2[C@H](O)[C@@H](O)[C@@H](O[C@H]3[C@H](O)[C@@H](O)C(O)O[C@@H]3CO)O[C@@H]2CO)[C@H](O)[C@@H](O)[C@@H]1N[C@H]1C=C(CO)[C@@H](O)[C@H](O)[C@H]1O (some centres not stated) [ACARBOSE]
127.18,,COc1ccc(-c2nn(-c3ccccc3)cc2/C=C2\SC(=O)N(Cc3ccccc3)C2=O)cc1
,13.4,O=C(/C=C/c1ccc(O)c(O)c1)O[C@@H]1C[C@@](O)(C(=O)O)C[C@@H](O)[C@@H]1O
0.7,,COC(=O)c1c2c(c3ccccc3c1O)OC(C)(C)C=C2 [MOLLUGIN]
42.5,,CC1(C)C=Cc2c(C(=O)O)c(O)c3ccccc3c2O1
100,,COC(=O)c1c(O)c2ccccc2c2occc12 [FUROMOLLUGIN]
14.43,,O=C(c1cc(O)c(O)c(O)c1)c1cc(O)c(Br)cc1O
19.24,,O=C(c1ccccc1)c1ccc(O)cc1Br
16.44,,O=C(c1ccc(O)c(O)c1)c1cc(O)c(Br)cc1O
,13.8,O=C(/C=C/c1ccc(O)c(O)c1)O[C@@H]1C[C@](O)(C(=O)O)C[C@@H](O)[C@H]1O [CHLOROGENIC ACID]
13.32,,Oc1cc(Cc2ccccc2)c(O)cc1Br
0.4,,O=C(/C=C/c1ccc(O)c(O)c1)O[C@H](Cc1ccc(O)c(O)c1)C(=O)O [ROSMARINIC ACID]
128.55,,O=C(O)CN1C(=O)S/C(=C\c2cn(-c3ccccc3)nc2-c2ccccc2)C1=O
110.88,,O=C1S/C(=C\c2cn(-c3ccccc3)nc2-c2ccc(O)cc2)C(=O)N1Cc1ccccc1
13.86,,Oc1ccc(Cc2cc(O)c(Br)cc2O)cc1
28,,COc1cc(/C=C/C(=O)CC(=O)/C=C/c2ccc(O)c(OC)c2)ccc1O [CURCUMIN]
20,,CNc1cc(/C=C/c2cc(/C=C/c3ccc(OCC(N)=O)c(OC)c3)[nH]n2)ccc1OCC(N)=O
0.8,,O=C(O)/C=C/c1ccc(O)c(O)c1 [CAFFEIC ACID]

# Same assay, conditions: read-out: IC50
row,IC50 [µM],Compound
1,1.54,O=C(O)C1CS[C@@H](c2ccccc2)N1 (some centres not stated)
2,0.93,O=C(O)C1CS[C@@H](c2cccc(Cl)c2Cl)N1 (some centres not stated)
3,1.22,Cc1ccc([C@H]2NC(C(=O)O)CS2)cc1 (some centres not stated)
4,1.52,O=C(O)C1CS[C@@H](c2cccc(Cl)c2)N1 (some centres not stated)
5,1.5,COc1ccccc1[C@H]1NC(C(=O)O)CS1 (some centres not stated)
6,0.83,O=C(O)C1CS[C@@H](c2cccc(F)c2F)N1 (some centres not stated)

# Test: Antioxidant activity by ORAC-FL method
# Format: functional
# Design: reference not given here
# Conditions: not given
row,Compound,Activity [µmol]
1,O=c1c2cccc(F)c2[se]n1-c1ccc2cccc(O)c2n1,3.6
2,O=c1c2cccc(Cl)c2[se]n1-c1ccc2cccc(O)c2n1,0.9
3,O=c1c2c(C(F)(F)F)cccc2[se]n1-c1ccc2cccc(O)c2n1,0.2
4,O=c1c2c(F)cccc2[se]n1-c1ccc2cccc(O)c2n1,2.3
5,O=c1c2cccc(C(F)(F)F)c2[se]n1-c1ccc2cccc(O)c2n1,0.3

# Test: Antioxidant activity assessed as trolox equivalent of DPPH radical scavenging activity
# Format: functional
# Conditions: not given
row,Compound,Activity [µmol/g]
1,O=C(N/N=C/c1c(O)cc(O)cc1O)c1cc2ccccc2[nH]1,4190
2,O=C(N/N=C/c1ccccc1O)c1cc2ccccc2[nH]1,8.71
3,O=C(N/N=C/c1cc(Br)ccc1O)c1cc2ccccc2[nH]1,14.2
4,O=C(N/N=C/c1cc(O)ccc1O)c1cc2ccccc2[nH]1,9960
5,O=C(N/N=C/c1ccc(O)c(O)c1O)c1cc2ccccc2[nH]1,12800
6,O=C(N/N=C/c1ccc(O)cc1O)c1cc2ccccc2[nH]1,2000
7,COc1cccc(/C=N/NC(=O)c2cc3ccccc3[nH]2)c1O,38.7

# Test: Antioxidant activity assessed as DPPH radical scavenging activity by measuring inhibition rate at 60 ug/ml incubated for 50 mins in dark by UV-Vis spectrophotometric analysis relative to control
# Format: functional
# Conditions: dose 60.0 µg/ml
row,Compound,inhibition [%]
1,CN1CCN(c2ccc3nc(-c4ccc(O)c(O)c4)[nH]c3c2)CC1,76.8
2,COc1cc(-c2nc3ccc(N4CCOCC4)cc3[nH]2)ccc1O,76.1
3,COc1cc(-c2nc3ccc(N4CCN(C)CC4)cc3[nH]2)ccc1O,63.6
4,Oc1ccc(-c2nc3ccc(N4CCOCC4)cc3[nH]2)cc1O,77
